Experimental data taken from US10988523B2, “Modified lipidated Relaxin B chain peptides and their therapeutic use” (Sanofi, priority 2018, dated 2021).
*1 amine or outer side, *2 acyl side, *3 side chain or, on linkers, in order; H or OH if unused. Where a SMILES comes first, the peptide text is derived from it. Side-chain parts run from the residue outwards. [ ]: non-standard residue; d: D form. The star is where a group is joined. X13 = CCCCCCCCCCCCCCCC(=O)N[C@@H](CCC(=O)N[C@@H](CCC(=O)N[C@@H](CCC(=O)NCCCC[C@H](NC(=O)COCC(=O)NCCCOCCOCCOCCCN*)C(N)=O)C(=O)O)C(=O)O)C(=O)O; PEG28 = NCCOCCOCCOCCOCCOCCOCCOCCOCCOCCOCCOCCOCCOCCOCCOCCOCCOCCOCCOCCOCCOCCOCCOCCOCCOCCOCCOCCOCCC(=O)O; Lys(Me3) = C[N+](C)(C)CCCC[C@H](N)C(=O)O; γGlu = O=C(O)[C@H](CCC(=O)[*:2])N[*:1]; Stearoyl = CCCCCCCCCCCCCCCCCC(=O)*; Palmitoyl = CCCCCCCCCCCCCCCC(=O)*; Cit = NC(=O)NCCC[C@H](N)C(=O)O; αMeK = C[C@](N)(CCCCN)C(=O)O; Nle = CCCC[C@H](N)C(=O)O; AEEA = NCCOCCOCC(=O)O; Aib = CC(C)(N)C(=O)O

Target: T1, RXFP1 (Homo sapiens, UniProt Q9HBX9)
T1 construct: OVCAR5 cells expressing endogenous RXFP1; endogenous in cells; host or cells: OVCAR5 cells
T1 sequence (Q9HBX9 1-757): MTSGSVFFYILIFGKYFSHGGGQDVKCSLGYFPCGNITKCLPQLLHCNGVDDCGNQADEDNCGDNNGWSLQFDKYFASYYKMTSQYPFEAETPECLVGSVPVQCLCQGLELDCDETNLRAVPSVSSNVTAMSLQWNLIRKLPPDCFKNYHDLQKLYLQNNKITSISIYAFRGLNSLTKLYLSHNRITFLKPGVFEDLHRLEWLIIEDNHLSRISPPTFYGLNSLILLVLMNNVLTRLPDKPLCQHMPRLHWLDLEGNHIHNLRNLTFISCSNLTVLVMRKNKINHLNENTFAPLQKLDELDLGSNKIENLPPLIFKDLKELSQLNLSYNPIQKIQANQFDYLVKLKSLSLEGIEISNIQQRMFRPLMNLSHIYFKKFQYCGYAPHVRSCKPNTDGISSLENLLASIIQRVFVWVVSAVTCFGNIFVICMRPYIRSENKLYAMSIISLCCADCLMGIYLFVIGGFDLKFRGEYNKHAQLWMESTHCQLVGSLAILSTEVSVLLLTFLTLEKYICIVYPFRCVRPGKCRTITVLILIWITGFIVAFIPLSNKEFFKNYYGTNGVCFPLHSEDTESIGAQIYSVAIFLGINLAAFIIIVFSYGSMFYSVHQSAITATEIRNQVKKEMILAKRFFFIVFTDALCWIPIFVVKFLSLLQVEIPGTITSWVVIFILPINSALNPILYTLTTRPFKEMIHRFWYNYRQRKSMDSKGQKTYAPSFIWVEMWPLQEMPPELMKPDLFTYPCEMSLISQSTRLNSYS
Experiment: OVCAR5 cAMP assay (HTRF), RXFP1 agonist activity
Assay type: cell-based
Conditions: for Emax: OVCAR-5, maximal cAMP relative to H2-relaxin maximum (100%), read-out: EMax, OVCAR 5 cells (cAMP); for EC50: OVCAR5 cells, cAMP HTRF, read-out: EC50 (nM), OVCAR 5 cells (cAMP)
How it was run: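 OVCAR5 cells (endogenous RXFP1) pretreated 40 min at 37° C with 1 mM IBMX, then exposed to peptides in serum-free medium for 30 min at 37° C. Lysate cAMP read by HTRF; EC50 from variable-slope sigmoidal fit; Emax as % of H2-relaxin maximal cAMP in same run.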

Emax [%] | EC50 [nM] | SMILES
100 | – | CCCCCCCCCCCCCCCCCC(=O)N[C@@H](CCC(=O)N[C@@H](CCC(=O)N[C@@H](CCC(=O)NCCOCCOCC(=O)NCCOCCOCC(=O)NCCOCCOCC(=O)NCCCC[C@H](NC(=O)[C@H](CCCCNC(C)=O)NC(=O)[C@H](CCCC[N+](C)(C)C)NC(=O)[C@H](CCCNC(=N)N)NC(=O)C(C)(C)NC(=O)[C@H](CO)NC(=O)[C@H](Cc1c[nH]c2ccccc12)NC(=O)[C@@H](NC(=O)[C@H](CO)NC(=O)[C@H](CCCC)NC(=O)CNC(=O)[C@H](CCC(=O)O)NC(=O)C(C)(C)NC(=O)C(C)(C)NC(=O)[C@@H](NC(=O)[C@H](CCCCNC(C)=O)NC(=O)[C@H](C)NC(=O)[C@H](CCCNC(=N)N)NC(=O)[C@@H](NC(=O)[C@H](CCCCN)NC(=O)[C@H](CCC(=O)O)NC(=O)[C@H](CCCNC(=N)N)NC(=O)CNC(=O)[C@H](CCC(=O)O)NC(=O)[C@H](CC(C)C)NC(C)=O)C(C)C)[C@@H](C)CC)[C@@H](C)O)C(N)=O)C(=O)O)C(=O)O)C(=O)O [compound 134] (Ac-LEGREKVRAK(Ac)I[Aib][Aib]EG[Nle]STWS[Aib]R[Lys(Me3)]K(Ac)K([AEEA-AEEA-AEEA-γGlu-γGlu-γGlu-Stearoyl])-NH2)
93 | 0.17 | CCCCCCCCCCCCCCCCCC(=O)N[C@@H](CCC(=O)N[C@@H](CCC(=O)N[C@@H](CCC(=O)NCCOCCOCC(=O)NCCOCCOCC(=O)NCCCC[C@H](NC(=O)[C@H](CCCCN)NC(=O)[C@H](CCCCNC(C)=O)NC(=O)[C@H](CCCNC(=N)N)NC(=O)C(C)(C)NC(=O)[C@H](CO)NC(=O)[C@H](Cc1c[nH]c2ccccc12)NC(=O)[C@@H](NC(=O)[C@H](CO)NC(=O)[C@H](CCCC)NC(=O)CNC(=O)[C@H](CCC(=O)O)NC(=O)C(C)(C)NC(=O)C(C)(C)NC(=O)[C@@H](NC(=O)[C@H](CCCCNC(C)=O)NC(=O)[C@H](C)NC(=O)[C@H](CCCNC(=N)N)NC(=O)[C@@H](NC(=O)[C@H](CCCCN)NC(=O)[C@H](CCC(=O)O)NC(=O)[C@H](CCCNC(=N)N)NC(=O)CNC(=O)[C@H](CCC(=O)O)NC(=O)[C@H](CC(C)C)NC(C)=O)C(C)C)[C@@H](C)CC)[C@@H](C)O)C(N)=O)C(=O)O)C(=O)O)C(=O)O [compound 72] (Ac-LEGREKVRAK(Ac)I[Aib][Aib]EG[Nle]STWS[Aib]RK(Ac)KK([AEEA-AEEA-γGlu-γGlu-γGlu-Stearoyl])-NH2)
87 | – | CCCCCCCCCCCCCCCC(=O)N[C@@H](CCC(=O)N[C@@H](CCC(=O)N[C@@H](CCC(=O)NCCCC[C@H](NC(=O)COCC(=O)NCCCOCCOCCOCCCNC(=O)[C@H](CCCCNC(C)=O)NC(=O)[C@H](CCCCN)NC(=O)[C@H](CCCNC(=N)N)NC(=O)C(C)(C)NC(=O)[C@H](CO)NC(=O)[C@H](Cc1c[nH]c2ccccc12)NC(=O)[C@@H](NC(=O)[C@H](CO)NC(=O)[C@H](CCCC)NC(=O)CNC(=O)[C@H](CCC(=O)O)NC(=O)C(C)(C)NC(=O)C(C)(C)NC(=O)[C@@H](NC(=O)[C@H](CCCCNC(C)=O)NC(=O)[C@H](C)NC(=O)[C@H](CCCNC(=N)N)NC(=O)[C@@H](NC(=O)[C@H](CCCCN)NC(=O)[C@H](CCC(=O)O)NC(=O)[C@H](CCCNC(=N)N)NC(=O)CNC(=O)[C@H](CCC(=O)O)NC(=O)[C@H](CC(C)C)NC(C)=O)C(C)C)[C@@H](C)CC)[C@@H](C)O)C(N)=O)C(=O)O)C(=O)O)C(=O)O [compound 175] (Ac-LEGREKVRAK(Ac)I[Aib][Aib]EG[Nle]STWS[Aib]RKK(Ac)-X13)
106 | – | CCCCCCCCCCCCCCCCCC(=O)N[C@@H](CCC(=O)N[C@@H](CCC(=O)N[C@@H](CCC(=O)NCCCC[C@H](NC(=O)CCOCCOCCOCCOCCOCCOCCOCCOCCOCCOCCOCCOCCOCCOCCOCCOCCOCCOCCOCCOCCOCCOCCOCCOCCOCCOCCOCCOCCNC(=O)[C@H](CCCCNC(C)=O)NC(=O)[C@H](CCCCN)NC(=O)[C@H](CCCNC(=N)N)NC(=O)C(C)(C)NC(=O)[C@H](CO)NC(=O)[C@H](Cc1c[nH]c2ccccc12)NC(=O)[C@@H](NC(=O)[C@H](CO)NC(=O)[C@H](CCCC)NC(=O)CNC(=O)[C@H](CCC(=O)O)NC(=O)C(C)(C)NC(=O)C(C)(C)NC(=O)[C@@H](NC(=O)[C@H](CCCCNC(C)=O)NC(=O)[C@H](C)NC(=O)[C@H](CCCNC(=N)N)NC(=O)[C@@H](NC(=O)[C@H](CCCCN)NC(=O)[C@H](CCC(=O)O)NC(=O)[C@H](CCCNC(=N)N)NC(=O)CNC(=O)[C@H](CCC(=O)O)NC(=O)[C@H](CC(C)C)NC(C)=O)C(C)C)[C@@H](C)CC)[C@@H](C)O)C(N)=O)C(=O)O)C(=O)O)C(=O)O [compound 49] (Ac-LEGREKVRAK(Ac)I[Aib][Aib]EG[Nle]STWS[Aib]RKK(Ac)[PEG28]K([γGlu-γGlu-γGlu-Stearoyl])-NH2)
89 | 1 | CCCCCCCCCCCCCCCCCC(=O)N[C@@H](CCC(=O)N[C@@H](CCC(=O)N[C@@H](CCC(=O)NCCOCCOCC(=O)NCCOCCOCC(=O)NCCOCCOCC(=O)NCCCC[C@H](NC(=O)[C@H](CCCCNC(C)=O)NC(=O)[C@H](CCCCN)NC(=O)[C@H](CCCNC(N)=O)NC(=O)[C@](C)(CCCCN)NC(=O)[C@H](CO)NC(=O)[C@H](Cc1c[nH]c2ccccc12)NC(=O)[C@@H](NC(=O)[C@H](CO)NC(=O)[C@H](CCCC)NC(=O)CNC(=O)[C@H](CCC(=O)O)NC(=O)C(C)(C)NC(=O)C(C)(C)NC(=O)[C@@H](NC(=O)[C@H](CCCCNC(C)=O)NC(=O)[C@H](C)NC(=O)[C@H](CCCNC(=N)N)NC(=O)[C@@H](NC(=O)[C@H](CCCCN)NC(=O)[C@H](CCC(=O)O)NC(=O)[C@H](CCCNC(=N)N)NC(=O)CNC(=O)[C@H](CCC(=O)O)NC(=O)[C@H](CC(C)C)NC(C)=O)C(C)C)[C@@H](C)CC)[C@@H](C)O)C(N)=O)C(=O)O)C(=O)O)C(=O)O [compound 129] (Ac-LEGREKVRAK(Ac)I[Aib][Aib]EG[Nle]STWS[αMeK][Cit]KK(Ac)K([AEEA-AEEA-AEEA-γGlu-γGlu-γGlu-Stearoyl])-NH2)
87 | – | CCCCCCCCCCCCCCCCCC(=O)N[C@@H](CCC(=O)N[C@@H](CCC(=O)N[C@@H](CCC(=O)NCCOCCOCC(=O)NCCOCCOCC(=O)NCCCC[C@H](NC(=O)[C@H](CCCCN)NC(=O)[C@H](CCCCN)NC(=O)[C@H](CCCNC(=N)N)NC(=O)C(C)(C)NC(=O)[C@H](CO)NC(=O)[C@H](Cc1c[nH]c2ccccc12)NC(=O)[C@@H](NC(=O)[C@H](CO)NC(=O)[C@H](CCCC)NC(=O)CNC(=O)[C@H](CCC(=O)O)NC(=O)C(C)(C)NC(=O)C(C)(C)NC(=O)[C@@H](NC(=O)[C@H](CCC(N)=O)NC(=O)C(C)(C)NC(=O)[C@H](CCCNC(=N)N)NC(=O)[C@@H](NC(=O)[C@H](CCCCN)NC(=O)[C@H](CCC(=O)O)NC(=O)[C@H](CCCNC(=N)N)NC(=O)CNC(=O)[C@H](CCC(=O)O)NC(=O)[C@H](CC(C)C)NC(C)=O)C(C)C)[C@@H](C)CC)[C@@H](C)O)C(N)=O)C(=O)O)C(=O)O)C(=O)O [compound 69] (Ac-LEGREKVR[Aib]QI[Aib][Aib]EG[Nle]STWS[Aib]RKKK([AEEA-AEEA-γGlu-γGlu-γGlu-Stearoyl])-NH2)
100 | – | CCCCCCCCCCCCCCCC(=O)N[C@@H](CCC(=O)N[C@@H](CCC(=O)N[C@@H](CCC(=O)NCCCC[C@H](NC(=O)[C@H](CCCCN)NC(=O)[C@H](CCCCN)NC(=O)[C@H](CCCNC(=N)N)NC(=O)C(C)(C)NC(=O)[C@H](CO)NC(=O)[C@H](Cc1c[nH]c2ccccc12)NC(=O)[C@@H](NC(=O)[C@H](CO)NC(=O)[C@H](CCCC)NC(=O)CNC(=O)[C@H](CCC(=O)O)NC(=O)C(C)(C)NC(=O)C(C)(C)NC(=O)[C@@H](NC(=O)[C@H](C)NC(=O)[C@H](C)NC(=O)[C@H](CCCNC(=N)N)NC(=O)[C@@H](NC(=O)[C@H](CCCCN)NC(=O)[C@H](CCC(=O)O)NC(=O)[C@H](CCCNC(=N)N)NC(=O)CNC(=O)[C@H](CCC(=O)O)NC(=O)[C@H](CC(C)C)NC(=O)[C@H](CCC(=O)O)NC(C)=O)C(C)C)[C@@H](C)CC)[C@@H](C)O)C(N)=O)C(=O)O)C(=O)O)C(=O)O [compound 6] (Ac-ELEGREKVRAAI[Aib][Aib]EG[Nle]STWS[Aib]RKKK([γGlu-γGlu-γGlu-Palmitoyl])-NH2)
86 | – | CCCCCCCCCCCCCCCC(=O)N[C@@H](CCC(=O)NCCCC[C@H](NC(=O)CC[C@H](NC(=O)CC[C@H](NC(=O)COCCOCCNC(=O)COCCOCCNC(=O)COCCOCCNC(=O)[C@H](CCCCNC(C)=O)NC(=O)[C@H](CCCCN)NC(=O)[C@H](CCCNC(=N)N)NC(=O)C(C)(C)NC(=O)[C@H](CO)NC(=O)[C@H](Cc1c[nH]c2ccccc12)NC(=O)[C@@H](NC(=O)[C@H](CO)NC(=O)[C@H](CCCC)NC(=O)CNC(=O)[C@H](CCC(=O)O)NC(=O)C(C)(C)NC(=O)C(C)(C)NC(=O)[C@@H](NC(=O)[C@H](CCCCNC(C)=O)NC(=O)[C@H](C)NC(=O)[C@H](CCCNC(=N)N)NC(=O)[C@@H](NC(=O)[C@H](CCCCN)NC(=O)[C@H](CCC(=O)O)NC(=O)[C@H](CCCNC(=N)N)NC(=O)CNC(=O)[C@H](CCC(=O)O)NC(=O)[C@H](CC(C)C)NC(C)=O)C(C)C)[C@@H](C)CC)[C@@H](C)O)C(=O)O)C(=O)O)C(N)=O)C(=O)O [compound 117] (Ac-LEGREKVRAK(Ac)I[Aib][Aib]EG[Nle]STWS[Aib]RKK(Ac)[AEEA][AEEA][AEEA][γGlu][γGlu]K([γGlu-Palmitoyl])-NH2)
